Source: patent US20220378763A1, “COMPOUND FOR TREATMENT OF ACUTE INFLAMMATION IN THE MYOCARDIUM” (CALPROTECT AB, priority 2019, published 2022)

Assays:
Assay type in all cases: in vivo, mouse
[1] = system: C57BL/6 mice with permanent coronary artery ligation; assay: MI by permanent coronary artery ligation, long-term (21 days) treatment: echocardiography and scar size; conditions: treatment for 21 days
Experimental: Ultrasound measurements were performed at day −1 (baseline), 7, and 21 to assess cardiac function using a Vevo 770 echocardiographic imaging system with a 707B probe (VisualSonics, Toronto, Canada). In selected experiments, additional assessment was performed on days 3 and 14. The mice were anesthetized using 1-3% isoflurane and hair was carefully removed using depilatory cream. To maintain body temperature, the mice were placed in supine position on a heated surface (37° C.). Two-dimensional M-mode images were recorded in the parasternal short-axis view at the mid-papillary level. Five complete cardiac cycles were traced to calculate fractional shortening, ejection fraction, left ventricular systolic volume, and left ventricular diastolic volume by using the VisualSonics software.
At 21 days after MI, the hearts were perfused with ice cold PBS and excised under ketamine/xylazine anesthesia. Subsequently the hearts were fixed in 4% (w/v) paraformaldehyde and embedded in paraffin. The hearts were sectioned transversely from the apex to the level of the suture, and 6 μm thick sections were collected at 390 μm intervals. The sections were mounted on glass slides and stained with Van Gieson or Masson trichrome stain for quantitative analysis of scar size. Alarmin S100A8/A9 was detected using mouse anti-S100A8/A9 IgG1 antibody (Abcam, ab 130234, 1:100 dilution, O/N 4° C.). Goat anti-mouse IgG1 HRP-conjugated secondary antibody (Abcam, ab 97240, 1 h RT) was used and the staining was developed with ImmPACT™ DAB (Vector, SK-4105) chromogen as substrate. The slides were subsequently scanned using an Aperio digital pathology slide scanner (Leica Biosystems), and images were captured with the ImageScope software (Leica Biosystems). Left ventricle area and the infarcted area were measured on each section by using the BioPix iQ 2.5.0 software (Biopix AB). The size of the post-MI myocardial scar was expressed as percentage of the left ventricle volume below the coronary ligature.
MI induction and other procedures were carried out as outlined in Example 2. For long-term experiments of up to 21 days, a daily dose of 30 mg/Kg ABR-238901 was diluted in PBS and administered by daily i.p. injections for the first 3 days post-MI until the mice recovered and started to drink normally, and thereafter p.o. ad-libitum in meglumine buffer (FIG. 4A). Adequate treatment dosage was ensured by closely monitoring daily fluid intake.

[2] = system: α-MHC-mCherry mice with MI; assay: Efferocytosis of mCherry+ cardiomyocytes by heart macrophages, 7 days post-MI; conditions: treatment for 7 days post-MI
Description: All mouse studies were approved by the Animal Research Ethics Committee of Lund University. C57BL/6NRJ mice were purchased from Janvier Labs, C57BL/6-Tg(Nr4a1-EGFP/cre)820Khog/J (Nur77-EGFP) and B6;D2-Tg(Myh6*-mCherry)2Mik/J (α-MHC-mCherry) were purchased from the Jackson Laboratory. Nur77-EGFP mice express the fluorescent EGFP protein under the Nur77 promoter. α-MHC-mCherry mice express the red fluorescent Cherry protein under the mouse alpha myosin heavy-chain promoter in cardiomyocytes. We used 8-12 weeks old female mice in all experiments. MI was induced by left coronary artery ligation using a minimal thoracotomy model. Mice were initially anesthetized with 4% isoflurane and the surgical procedure was performed under 1.7% isoflurane. Following heart exposure outside of the thorax through a small thoracic incision, the left coronary artery was permanently ligated using silk 6.0 suture, the heart repositioned, and the thorax was closed with 6.0 prolene monofilament suture.
In an attempt to explain these intriguing results, we assessed the effects of the extended treatment on the presence of myeloid cells in blood, spleen, bone marrow and myocardium, with particular emphasis on cellular populations involved in myocardial repair. The cellular infiltration was analysed by flow cytometry on day 7, at the peak of the reparatory post-MI period. […]

[3] = system: C57BL/6 mice with sepsis induced by bacterial lipopolysaccharide; assay: LPS-induced sepsis: weight loss
Experimental: General animal care, induction of sepsis and treatments were performed as described under Example 7. We included 5 mice per treatment group. After induction of sepsis, the mice were monitored for 7 days (FIG. 15A). To evaluate bodyweight, mice were weighed daily at the same time points during the course of the experiment.

[4] = system: BALB/c mice with induced myocarditis; assay: Myocarditis induced by cardiac α-myosin peptide: echocardiography; conditions: 30 mg/kg/day orally from day 7
Experimental: Female BALB/c mice, 8 weeks of age, were purchased from Taconic and housed under 12 h:12 h light:dark cycles with access to food and water ad libitum. To induce myocarditis, all mice were injected subcutaneously (s.c.) with 100 μg murine cardiac a-myosin heavy chain peptide (Ac-RSLKLMATLFSTYASADR-OH, Anaspec) emulsified 1:1 in complete Freund's adjuvant containing 1 mg/mL heat-killed Mycobacterium tuberculosis H37Ra (Sigma-Aldrich), on days 0 and 7 (FIG. 17A). ABR-238901 was administered orally ad-libitum diluted in meglumine buffer (to prevent precipitation in the drinking bottle during the course of the experiment) at a dose of 30 mg/kg/day, starting on day 7 and throughout the course of the experiment (n=9 mice). Fluid intake was closely monitored during the experiment to ensure an appropriate drug dosage. Mice with induced myocarditis drinking meglumine buffer alone ad-libitum were used as controls (n=12 mice). Mice received daily attendance to ensure their well-being. All mouse studies were approved by the Animal Research Ethics Committee of Lund University.
Transthoracic echocardiography was performed as described under Example 7. Cardiac function was evaluated by echocardiography at baseline and at 21, 28 and 35 days after the first injection of murine cardiac a-myosin heavy chain peptide.

COc1ncc(S(=O)(=O)Nc2cncc(Cl)c2O)cc1Br [ABR-238901, 5-bromo-N-(5-chloro-4-hydroxypyridin-3-yl)-6-methoxypyridine-3-sulfonamide]
Cardiac function (left ventricular ejection fraction) ([1]; 30 mg/Kg i.p. 3 days then p.o., echocardiography): progressive deterioration
Size of the myocardial scar ([1]; 21 days): increased
EDV vs controls ([1]; day 21): increased
ESV vs controls ([1]; day 21): increased
Reduction of the number of macrophages having phagocytosed mCherry+ cardiomyocytes [2]: approximately 50%
mCherry mean fluorescent intensity (MFI) in MerTKhi and MerTKlo macrophages [2]: did not affect
Decrease in body weight ([3]; day 1): 5.2%
Decrease in body weight ([3]; day 2): 11.7%
Decrease in body weight ([3]; day 3): 8.8%
Decrease in body weight ([3]; day 4): 4%
Cardiac output ([4]; day 28): 11.26 mL/min
Left ventricular ejection fraction (LVEF) ([4]; day 28): 52%
Cardiac output ([4]; day 35): 12.03 mL/min
Left ventricular ejection fraction (LVEF) ([4]; day 35): 53%
